Target: γ-secretase (Cricetulus griseus, UniProt G3HNF2)
Experiment: Cell-Based γ-Secretase Assay with ELISA Readout (production of amyloid beta protein Aβ(1-42))
Conditions: human WT-APP overexpressing CHO cells; Aβ(1-42) ELISA; geometric mean of 2-4 determinations (b: single determination; c: geometric mean of ≧5 determinations)
Procedure: The ability of compounds to modulate production of amyloid beta protein Aβ(1-42) was determined using human WT-APP overexpressing CHO cells. Cells were plated at 22,000 cells/100 μL well in 96 well tissue culture treated, clear plates (Falcon) in DMEM/F12 based medium and incubated for 24 hours at 37° C. […] Compounds were added in fresh medium to achieve 1% final DMSO. Appropriate vehicle or inhibitor controls were added into control wells individually to obtain minimum or maximum inhibition values, respectively, for the assay signal window before the plates were incubated for ˜24 hours at 37° C. This procedure produces conditioned media in each well which is tested for Aβ(1-42) levels in the ELISA detection step described next. The remaining cell cultures in each well are also tested for cell toxicity as described below.
Coating of ELISA assay plates was initiated by addition of 50 μL/well of an in-house Aβ(1-42) specific antibody at (3 μg/mL) in 0.1 M NaHCO3 (pH 9.0) into black 384-well Maxisorp® plates (Nunc) and incubated overnight at 4° C. […] Cell toxicity was also measured in the corresponding remaining cells after removal of the conditioned media for the Aβ(1-42) assay by a colorimetric cell proliferation assay (CellTiter 96®AQueous One Solution Cell Proliferation Assay, Promega) according to the manufacturer's instructions. […]

## Cc1cn(-c2ccc3n(c2=O)CCN(CC2CC(c4ccc(Cl)c(C(F)(F)F)c4)=NO2)C3=O)cn1 (stereo not shown) [Example 32, 2-({3-[-chloro-3-(trifluoromethyl)phenyl]-4,5-dihydro-1,2-oxazol-5-yl}methyl)-7-(4-methyl-1H-imidazol-1-yl)-3,4-dihydro-2H-pyrido[1,2-a]pyrazine-1,6-dione]
  IC50: 429 nM
